Data: patent publication US20210113519A1, “Compositions and Methods for Modulating Permeability of Biological Barriers” (Carnegie Mellon University, priority 2018, published 2021)
“Also recorded” adds a separate entry of the source.

Legend:
intestinal epithelium = experiment: Insulin delivery study: blood glucose in mice after oral enhancer and intestinal insulin injection; format: in vivo
Protocol: For insulin delivery studies, mice were orally gavaged with PBS (for control) or strawberry treatments (600 mg/kg STRB PPh or 40 mg/kg pelargonidin). One hour later, their initial blood sugar was measured and the animals were placed under anesthesia. Their intestines were surgically exposed, and insulin was injected at the predetermined dose (1 unit per kg body weight unless otherwise specified) into the duodenum of the small intestine, avoiding digestion in the stomach. The mice were closed and secured with tissue adhesive, then kept under anesthesia as their blood sugar levels were monitored each hour for five hours. For comparison to the current standard of insulin delivery, subcutaneous injections were given at 1 U/kg to additional mice, into the scruff on their necks. To determine areas above the curve for each mouse, trapezoidal integration was used to sum the area between known points on the blood glucose curve and the starting blood glucose value for the individual animal.

[1] = test system: Caco-2 intestinal epithelial cell monolayers; experiment: TEER (transepithelial electrical resistance) assay on Caco-2 monolayers; format: cell-based, human
Protocol: (§1) Caco-2 Cell Monolayers: Caco-2 cells were seeded in Basal Seeding Medium (BSM) on a collagen-coated, 24-Multiwell Insert […]® Plate at a concentration of 2×10^5 cells per well. The plate was incubated at 37° C. for one to two days. On the third day, the BSM was replaced with Enterocyte Differentiation Medium (EDM). The plate was then incubated one to two more days at 37° C. to allow complete formation of differentiated monolayers.
TEERAssay: All TEER (transepithelial electrical resistance) values were measured using a voltohmmeter. Between each TEER measurement, the plate was incubated at 37° C. for a minimum of fifteen minutes to allow the cells to rest. To ensure that all the wells contained fully formed Caco-2 monolayers (>200 Ω·cm^2), initial TEER values were measured prior to treatment exposure. After adding the extracts to each well, TEER values were measured at defined intervals for a total of three hours. The treatments were then aspirated, and the cells rinsed with PBS before refilling the wells with fresh EDM. The plates were then left in the incubator at 37° C. for 24 hours, when recovery TEER values were measured.

Caco-2 monolayers = experiment: Calcein permeability assay through Caco-2 monolayers; format: cell-based, human; settings: for calcein permeability, known phenolic compounds from strawberry: 1 mg/mL; for calcein permeability, anthocyanidins: applied at 0.33 mg/ml, vs untreated control
Protocol: as §1
Permeability Assays: The paracellular diffusion markers were applied at 0.5 mM (calcein) or 0.1 mM (4 kDa FITC-Dextran), dissolved in EDM with the treatment extracts, to the apical side of fully-formed monolayers (TEER>200 Ω·cm^2). Fresh EDM with the markers was used as a negative control. After one hour, media in the basal chambers was sampled and examined for fluorescence at 495/515 nm. Application of calibration curves yielded an amount of mass transferred across each monolayer, which was used in the permeability equation Papp=ΔM/CaAΔt, where Papp is the apparent permeability through the monolayer, ΔM is the marker mass in the basal compartment, Ca is the apical marker concentration, A is the monolayer area, and Δt is the time between samples. Permeability measurements are expressed as the ratio of monolayer permeability at 3 hours after treatment addition to permeability before treatment addition, normalized to any change in negative control monolayers during that time.

intestinal barrier = experiment: Oral FITC-DX4 (4 kDa dextran) absorption in mice after oral enhancer; format: in vivo; settings: pelargonidin 40 mg/kg oral, then FITC-DX4 600 mg/kg oral
Protocol: Examination of strawberry extract efficacy in vivo: For dextran efficacy studies, fasted mice were orally gavaged with 600 mg/kg STRB PPh solutions or 40 mg/kg pelargonidin solutions, then gavaged three hours later with 600 mg/kg FITC-DX4. Three hours after the dextran gavage, blood was collected and centrifuged. The serum was removed and examined for FITC concentration by reading for fluorescence on the plate reader and comparing to a unique calibration curve for each experiment. For larger macromolecule studies, 40 kDa dextran (FITC-DX40) was substituted at the same 600 mg/kg concentration.

[2] = pelargonidin between 0.33 and 1.00 mg/mL

insulin: bovine pancreas insulin [reference compound]
blood glucose response to subcutaneous insulin (intestinal epithelium; 1 U/kg subcutaneous insulin dose): pronounced but brief response

Oc1ccc(-c2[o+]c3cc(O)cc(O)c3cc2O)cc1 [pelargonidin]
permeabilization and recovery of barrier function ([1]; 0.33 mg/ml): substantial yet reversible permeabilization
permeabilization and recovery of barrier function ([1]; 0.67 mg/ml): substantial yet reversible permeabilization
permeabilization and recovery of barrier function ([1]; 1 mg/ml): opened the tight junctions beyond their ability to recover barrier function
recovery of barrier function within 24 hours (TEER) ([1]; pelargonidin 0.33, 0.67 and 1.00 mg/mL): only the two lower concentrations recovered their barrier function
TEER response (opening of tight junctions) [1, 2]: dose-dependent opening of the tight junctions
calcein permeability, known phenolic compounds from strawberry (Caco-2 monolayers): effective permeation enhancer; also recorded: significantly increased the permeability of calcein
calcein permeability, anthocyanidins (Caco-2 monolayers): increase the permeability of calcein; also recorded: statistically significant increases
improvement of calcein permeability, dose response (Caco-2 monolayers; [2]): dose dependence was also evident
FITC-DX4 absorption across the intestinal barrier vs saline (PBS) gavage (intestinal barrier): doubled
duration of hypoglycemia vs 1 U/kg subcutaneous insulin (intestinal epithelium; pelargonidin 40 mg/kg oral + 1 U/kg intestinal insulin): sustained hypoglycemia several hours longer
total pharmacodynamic effect (area above the curve) relative to subcutaneous insulin (intestinal epithelium; pelargonidin 40 mg/kg oral + 1 U/kg intestinal insulin vs 1 U/kg subcutaneous): approximately 1.3 times
relative bioactivity value (intestinal epithelium; pelargonidin 40 mg/kg oral + 1 U/kg intestinal insulin vs 1 U/kg subcutaneous insulin, AAC): 130%
blood glucose response to intestinal insulin (intestinal epithelium; pelargonidin 40 mg/kg oral, one hour later 1 U/kg insulin intestinal injection, vs saline gavage): substantial reduction in blood glucose; also recorded: sustained reductions in blood glucose levels

OC[C@H]1O[C@@H](Oc2cc3c(O)cc(O)cc3[o+]c2-c2ccc(O)cc2)[C@H](O)[C@@H](O)[C@@H]1O [callistephin, reference compound]
calcein permeability, known phenolic compounds from strawberry (Caco-2 monolayers): not an effective permeation enhancer

COc1cc(-c2[o+]c3cc(O)cc(O)c3cc2O)cc(OC)c1O.[Cl-] [malvidin]
calcein permeability, anthocyanidins (Caco-2 monolayers): increase the permeability of calcein; also recorded: statistically significant increases

COc1cc(-c2[o+]c3cc(O)cc(O)c3cc2O)cc(O)c1O [petunidin]
calcein permeability, anthocyanidins (Caco-2 monolayers): increase the permeability of calcein; also recorded: statistically significant increases
